Experimental data from ChEMBL document CHEMBL2331159, “Radiolytic transformation of rotenone with potential anti-adipogenic activity” (Bioorg Med Chem Lett, 2013).

Assays:
3T3-L1 [1] = experiment: Cytotoxicity against mouse 3T3L1 cells assessed as cell viability at 0.02 to 20 uM by MTT assay; type: cell-based; conditions: 3t3-l1, 20 µM
[2] = target: T1, Pancreatic triacylglycerol lipase (Sus scrofa, UniProt P00591); experiment: (§1) Inhibition of pig pancreatic lipase assessed as hydrolysis of p-nitrophenylbutyrate to p-nitrophenol
T1 sequence (P00591 whole entry): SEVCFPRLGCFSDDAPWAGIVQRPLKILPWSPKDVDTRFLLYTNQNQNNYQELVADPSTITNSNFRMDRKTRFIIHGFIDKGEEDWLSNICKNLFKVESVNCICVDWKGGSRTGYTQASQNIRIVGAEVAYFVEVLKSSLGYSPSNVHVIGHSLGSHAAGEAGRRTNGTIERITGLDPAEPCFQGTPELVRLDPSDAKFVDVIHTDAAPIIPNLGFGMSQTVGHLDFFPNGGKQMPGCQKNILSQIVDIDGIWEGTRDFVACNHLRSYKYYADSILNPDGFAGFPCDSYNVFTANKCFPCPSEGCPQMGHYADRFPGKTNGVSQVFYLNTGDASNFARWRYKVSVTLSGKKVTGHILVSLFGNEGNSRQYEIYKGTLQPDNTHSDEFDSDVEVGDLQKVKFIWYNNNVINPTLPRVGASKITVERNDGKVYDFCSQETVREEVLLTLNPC

3T3-L1 [3] = experiment: Antiadipogenic activity against mouse 3T3L1 cells assessed as inhibition of lipid deposition at 2 uM by Oil Red O staining; type: functional
3T3-L1 [4] = experiment: Cytotoxicity against mouse 3T3L1 cells assessed as cell viability upto 2 uM by MTT assay; type: cell-based
[5] = target: T2, Pancreatic triacylglycerol lipase (Sus scrofa) (UniProt P00591); experiment: as §1
T2 sequence (whole entry): T1 sequence (P00591 whole entry)

Structure (SMILES) | Activity (3T3-L1 [1]) | IC50 [2] | inhibition at 2 µM (3T3-L1 [3]) | Activity (3T3-L1 [4]) | inhibition [5]
C=C(C)[C@H]1Cc2c(ccc3c2O[C@@H]2COc4cc(OC)c(OC)cc4[C@@H]2C3=O)O1 (stereo in doubt; 1) [ROTENONE] | Toxic | > 500 µM |  |  | 
C=C(C)[C@H]1Cc2c(ccc3c2O[C@@H]2COc4cc(OC)c(OC)cc4[C@@H]2[C@]32C[C@H]3O[C@@]3(O)[C@H](O)O2)O1 [ROTENOISIN B] |  | 28.4 µM | 70% | Non-toxic | 
C=C(C)[C@H]1Cc2c(ccc3c2O[C@@H]2COc4cc(OC)c(OC)cc4[C@@H]2C3=O)O1 (stereo in doubt) [ROTENONE] |  | 79.1 µM |  |  | 
C=C(C)[C@H]1Cc2c(ccc3c2O[C@@H]2COc4cc(OC)c(OC)cc4[C@@H]2[C@@]32CO2)O1 [ROTENOISIN A] |  | 6.3 µM | 70% | Non-toxic | Dose-dependent effect
